Assay results taken from patent US12252478B2.
Several values for one entry are separate records, joined by “and”; a condition that tells them apart may be missing. Identical values can stand only once.

Columns and labels:
[1] = Intrinsic dissolution rate (VanKel instrument, Cary 100 photometer); assay type: physicochemical
Description: As measured on a VanKel instrument using a Cary 100 photometer, the intrinsic dissolution rate of Form A was determined in pH 4.5, pH 6.8 and 0.1 N HCl medium as follows:
As measured on a VanKel instrument using a Cary 100 photometer, the intrinsic dissolution rate of Form A was determined in pH 3.5, pH 4.5 and 0.1 N HCl medium as follows: […]

[2] = Hygroscopicity (water uptake); assay type: physicochemical
[3] = Solubility as a function of pH; assay type: physicochemical; settings: above pH 3
[4] = Equilibration in water depending on pH / form conversion; assay type: physicochemical
From the text: Forms A and B are enantiotropically related. […] Form B spontaneously transforms to Form A at ambient conditions. Form A can be converted to Modification HA, or Form HA, when equilibrated in water at pH 1.

[5] = Thermodynamic stability of Forms A and B: heating and cooling cycles, transition temperatures
[6] = heating/cooling rate 0.5° C./min
[7] = heating/cooling rate 10° C./min
[8] = heating/cooling rate 20° C./min
[9] = heating/cooling rate 40° C./min

Cl.O=C(Nc1ccc(OC(F)(F)Cl)cc1)c1cnc(N2CC[C@@H](O)C2)c(-c2ccn[nH]2)c1 [form A of HCl salt]
Intrinsic DR value ([1]; Acetate buffer pH 4.5): 0.01 mg/min/cm2
Intrinsic DR value ([1]; Citrate buffer (pH 3.5)): 0.02 mg/min/cm2
Intrinsic DR value ([1]; HCL 0.01N (pH 2)): 2.25 mg/min/cm2
Intrinsic DR value ([1]; HCL 0.1N (pH 1)): 0.16 mg/min/cm2
water uptake ([2]; 25° C. up to 95% relative humidity): less than 0.4%
solubility [3]: rather low
behaviour when equilibrated in water ([4]; pH 1): converting into the trihydrate HA
behaviour when equilibrated in water ([4]; pH>3.5): prone to disproportionate
transition A → B [5, 6]: 95.1 °C
transition A → B ([5]; heating/cooling rate 1° C./min): 96.5 °C
transition A → B ([5]; heating/cooling rate 5° C./min): 100.3 °C
transition A → B [5, 7]: 102.1 °C
transition A → B [5, 8]: 104.8 °C
transition A → B [5, 9]: 103.7 °C

Cl.O=C(Nc1ccc(OC(F)(F)Cl)cc1)c1cnc(N2CC[C@@H](O)C2)c(-c2ccn[nH]2)c1 [crystal form B of the hydrochloride salt]
form stability at ambient conditions ([5]; ambient conditions): spontaneously transforms back into Form A
transition B → A [5, 6]: 60.5 °C
transition B → A ([5]; heating/cooling rate 1° C./min): 53.8 °C
transition B → A ([5]; heating/cooling rate 5° C./min): 38.5 °C
transition B → A [5, 7]: 37.5 °C
transition B → A [5, 8]: 34.7 °C
transition B → A [5, 9]: 32.2 °C
decomposition observed ([5]; upon heating): above 240 °C

O=C(Nc1ccc(OC(F)(F)Cl)cc1)c1cnc(N2CC[C@@H](O)C2)c(-c2ccn[nH]2)c1 [Free Base form A]
Intrinsic DR value ([1]; Acetate buffer pH 4.5): n.a (does not dissolve)
Intrinsic DR value ([1]; HCL 0.1N): 1.8 mg/min/cm2 and 1.9 mg/min/cm2
Intrinsic DR value ([1]; pH = 6.8): n.a (does not dissolve)
water uptake ([2]; 25° C. up to 92% relative humidity): less than 0.1%
solubility [3]: rather low
